Data published in ChEMBL document CHEMBL4028801, “A multifactorial approach to hepatobiliary transporter assessment enables improved therapeutic compound development” (Toxicol Sci, 2013).

How the values were obtained:
[1] = biological target: ATP-binding cassette sub-family C member 2 (Homo sapiens, UniProt Q92887); experiment: Inhibition of human MRP2 overexpressed in Sf9 cell membrane vesicles assessed as uptake of [3H]-estradiol-17beta-D-glucuronide in presence of ATP and GSH measured after 20 mins by membrane vesicle transport assay
[2] = Drug concentration at steady state in human at 50 ug, sc BID/TID co-treated with 50 to 500 ug, sc TID of sandostatin LAR measured after 8 hrs; type: ADME, organism-based; conditions: in vivo, read-out: Css
[3] = Ratio of drug concentration at steady state in human at 50 ug, sc BID/TID co-treated with 50 to 500 ug, sc TID of sandostatin LAR measured after 8 hrs to IC50 for human BSEP overexpressed in Sf9 insect cells; type: ADME, organism-based; conditions: in vivo
[4] = AUC in human at 50 ug, sc BID/TID co-treated with 50 to 500 ug, sc TID of sandostatin LAR measured after 8 hrs; type: ADME, organism-based; set-up: dose 50 ug, time < 8 hr, route subcutaneous; conditions: in vivo
[5] = biological target: ATP-binding cassette sub-family C member 3 (Homo sapiens, UniProt O15438); experiment: Inhibition of human MRP3 overexpressed in Sf9 insect cell membrane vesicles assessed as uptake of [3H]-estradiol-17beta-D-glucuronide in presence of ATP and GSH measured after 10 mins by membrane vesicle transport assay; type: ADME, cell-based
Bile salt export pump = Bile salt export pump (Homo sapiens, UniProt O95342); experiment: Inhibition of human BSEP overexpressed in Sf9 cell membrane vesicles assessed as uptake of [3H]-taurocholate in presence of ATP measured after 15 to 20 mins by membrane vesicle transport assay; type: ADME, cell-based
[6] = biological target: T1, ATP-binding cassette sub-family C member 4 (Homo sapiens, UniProt O15439); experiment: Inhibition of human MRP4 overexpressed in Sf9 cell membrane vesicles assessed as uptake of [3H]-estradiol-17beta-D-glucuronide in presence of ATP and GSH measured after 20 mins by membrane vesicle transport assay; type: ADME, cell-based
T1 sequence (O15439 whole entry): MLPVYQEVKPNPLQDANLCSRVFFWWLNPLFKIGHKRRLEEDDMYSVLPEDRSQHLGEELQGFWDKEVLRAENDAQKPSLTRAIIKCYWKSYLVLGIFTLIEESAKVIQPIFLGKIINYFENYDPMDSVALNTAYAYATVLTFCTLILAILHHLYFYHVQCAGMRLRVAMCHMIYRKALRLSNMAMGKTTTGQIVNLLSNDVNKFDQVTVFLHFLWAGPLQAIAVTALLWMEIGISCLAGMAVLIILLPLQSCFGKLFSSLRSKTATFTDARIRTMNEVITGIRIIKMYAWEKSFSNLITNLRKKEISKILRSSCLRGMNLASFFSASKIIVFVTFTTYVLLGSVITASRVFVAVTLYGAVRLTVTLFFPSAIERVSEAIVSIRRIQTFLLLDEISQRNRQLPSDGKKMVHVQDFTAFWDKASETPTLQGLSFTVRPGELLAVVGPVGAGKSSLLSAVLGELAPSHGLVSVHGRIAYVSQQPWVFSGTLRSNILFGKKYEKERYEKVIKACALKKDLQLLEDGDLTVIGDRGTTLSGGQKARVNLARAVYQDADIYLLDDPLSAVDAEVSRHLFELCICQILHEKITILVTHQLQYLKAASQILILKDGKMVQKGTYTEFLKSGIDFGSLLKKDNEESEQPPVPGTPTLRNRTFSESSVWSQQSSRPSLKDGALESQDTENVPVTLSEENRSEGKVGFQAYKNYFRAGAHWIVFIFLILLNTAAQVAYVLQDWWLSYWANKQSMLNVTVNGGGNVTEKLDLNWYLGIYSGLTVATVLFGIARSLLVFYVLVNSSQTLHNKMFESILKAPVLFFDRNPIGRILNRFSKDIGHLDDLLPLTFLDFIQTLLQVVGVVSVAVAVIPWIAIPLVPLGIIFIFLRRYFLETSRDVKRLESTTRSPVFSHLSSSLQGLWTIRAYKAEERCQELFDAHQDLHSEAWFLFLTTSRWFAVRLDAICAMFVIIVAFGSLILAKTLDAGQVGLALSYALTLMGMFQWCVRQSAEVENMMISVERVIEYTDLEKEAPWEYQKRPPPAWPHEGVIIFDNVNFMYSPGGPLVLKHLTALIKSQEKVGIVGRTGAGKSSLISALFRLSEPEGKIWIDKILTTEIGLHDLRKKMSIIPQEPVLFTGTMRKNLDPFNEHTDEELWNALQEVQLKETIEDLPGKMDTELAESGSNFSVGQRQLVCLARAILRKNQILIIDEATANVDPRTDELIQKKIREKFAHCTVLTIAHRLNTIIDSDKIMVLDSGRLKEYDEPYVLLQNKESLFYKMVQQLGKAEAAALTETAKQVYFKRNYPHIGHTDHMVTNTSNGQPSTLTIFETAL

[7] = Drug concentration at steady state in human at 200 mg, po TID after 8 hrs; type: ADME, organism-based; conditions: in vivo, read-out: Css
[8] = AUC in human at 200 mg, po TID after 8 hrs; type: ADME, organism-based; set-up: time < 8 hr, dose 200 mg, route oral; conditions: in vivo
[9] = Ratio of drug concentration at steady state in human at 200 mg, po TID after 8 hrs to IC50 for human BSEP overexpressed in Sf9 insect cells; type: ADME, organism-based; conditions: in vivo
[10] = Ratio of drug concentration at steady state in human at 100 to 200 mg, po TID after 8 hrs to IC50 for human MRP3 overexpressed in Sf9 insect cells; type: ADME, organism-based; conditions: in vivo
[11] = AUC in human at 100 to 200 mg, po TID after 8 hrs; type: ADME, organism-based; conditions: in vivo
[12] = Ratio of drug concentration at steady state in human at 100 to 200 mg, po TID after 8 hrs to IC50 for human MRP4 overexpressed in Sf9 insect cells; type: ADME, organism-based; conditions: in vivo
[13] = Drug concentration at steady state in human at 100 to 200 mg, po TID after 8 hrs; type: ADME, organism-based; conditions: in vivo, read-out: Css
[14] = Ratio of drug concentration at steady state in human at 100 to 200 mg, po TID after 8 hrs to IC50 for human BSEP overexpressed in Sf9 insect cells; type: ADME, organism-based; conditions: in vivo
[15] = Ratio of drug concentration at steady state in human at 125 to 500 mg, po QID after 6 hrs to IC50 for human BSEP overexpressed in Sf9 insect cells; type: ADME, organism-based; conditions: in vivo
[16] = Drug concentration at steady state in human at 125 to 500 mg, po QID after 6 hrs; type: ADME, organism-based; conditions: in vivo, read-out: Css
[17] = AUC in human at 125 to 500 mg, po QID after 6 hrs; type: ADME, organism-based; conditions: in vivo
[18] = AUC in human at 75 to 600 mg, iv QD after 24 hrs; type: ADME, organism-based; conditions: in vivo
[19] = Drug concentration at steady state in human at 75 to 600 mg, iv QD after 24 hrs; type: ADME, organism-based; conditions: in vivo, read-out: Css

Sequence of Bile salt export pump (O95342 whole entry): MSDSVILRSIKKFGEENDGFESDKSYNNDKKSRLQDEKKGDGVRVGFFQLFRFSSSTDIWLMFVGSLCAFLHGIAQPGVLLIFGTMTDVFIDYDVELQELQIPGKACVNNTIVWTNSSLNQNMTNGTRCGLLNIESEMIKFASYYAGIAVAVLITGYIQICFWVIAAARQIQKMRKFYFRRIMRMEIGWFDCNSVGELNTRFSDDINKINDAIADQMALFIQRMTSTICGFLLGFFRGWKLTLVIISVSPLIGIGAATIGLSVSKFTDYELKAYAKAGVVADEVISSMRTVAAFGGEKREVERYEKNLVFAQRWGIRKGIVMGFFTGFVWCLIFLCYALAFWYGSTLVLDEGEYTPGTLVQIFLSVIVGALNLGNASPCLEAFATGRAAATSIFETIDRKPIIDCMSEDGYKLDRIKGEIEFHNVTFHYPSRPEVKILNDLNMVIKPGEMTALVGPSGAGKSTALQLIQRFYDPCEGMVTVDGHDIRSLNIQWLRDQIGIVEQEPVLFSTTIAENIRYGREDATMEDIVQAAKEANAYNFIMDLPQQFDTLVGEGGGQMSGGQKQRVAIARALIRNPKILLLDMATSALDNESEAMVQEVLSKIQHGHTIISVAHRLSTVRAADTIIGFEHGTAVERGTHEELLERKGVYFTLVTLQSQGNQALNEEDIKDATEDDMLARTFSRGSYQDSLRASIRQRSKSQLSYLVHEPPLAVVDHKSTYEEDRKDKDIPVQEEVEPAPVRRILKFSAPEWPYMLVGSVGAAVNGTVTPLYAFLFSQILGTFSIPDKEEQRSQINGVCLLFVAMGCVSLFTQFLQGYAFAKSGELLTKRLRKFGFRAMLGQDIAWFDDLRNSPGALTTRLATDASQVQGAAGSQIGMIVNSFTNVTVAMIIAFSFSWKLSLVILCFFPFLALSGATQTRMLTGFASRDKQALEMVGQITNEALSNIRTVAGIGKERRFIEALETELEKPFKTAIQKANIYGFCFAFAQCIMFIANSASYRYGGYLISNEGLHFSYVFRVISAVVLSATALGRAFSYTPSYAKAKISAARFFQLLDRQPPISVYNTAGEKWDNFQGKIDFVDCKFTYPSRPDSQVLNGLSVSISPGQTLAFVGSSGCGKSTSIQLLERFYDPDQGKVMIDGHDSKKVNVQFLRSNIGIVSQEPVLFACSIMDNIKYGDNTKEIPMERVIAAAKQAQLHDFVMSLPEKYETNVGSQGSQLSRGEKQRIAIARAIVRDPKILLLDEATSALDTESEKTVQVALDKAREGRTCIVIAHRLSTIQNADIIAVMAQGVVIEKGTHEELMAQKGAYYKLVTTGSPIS
Sequence of ATP-binding cassette sub-family C member 2 (Q92887 whole entry): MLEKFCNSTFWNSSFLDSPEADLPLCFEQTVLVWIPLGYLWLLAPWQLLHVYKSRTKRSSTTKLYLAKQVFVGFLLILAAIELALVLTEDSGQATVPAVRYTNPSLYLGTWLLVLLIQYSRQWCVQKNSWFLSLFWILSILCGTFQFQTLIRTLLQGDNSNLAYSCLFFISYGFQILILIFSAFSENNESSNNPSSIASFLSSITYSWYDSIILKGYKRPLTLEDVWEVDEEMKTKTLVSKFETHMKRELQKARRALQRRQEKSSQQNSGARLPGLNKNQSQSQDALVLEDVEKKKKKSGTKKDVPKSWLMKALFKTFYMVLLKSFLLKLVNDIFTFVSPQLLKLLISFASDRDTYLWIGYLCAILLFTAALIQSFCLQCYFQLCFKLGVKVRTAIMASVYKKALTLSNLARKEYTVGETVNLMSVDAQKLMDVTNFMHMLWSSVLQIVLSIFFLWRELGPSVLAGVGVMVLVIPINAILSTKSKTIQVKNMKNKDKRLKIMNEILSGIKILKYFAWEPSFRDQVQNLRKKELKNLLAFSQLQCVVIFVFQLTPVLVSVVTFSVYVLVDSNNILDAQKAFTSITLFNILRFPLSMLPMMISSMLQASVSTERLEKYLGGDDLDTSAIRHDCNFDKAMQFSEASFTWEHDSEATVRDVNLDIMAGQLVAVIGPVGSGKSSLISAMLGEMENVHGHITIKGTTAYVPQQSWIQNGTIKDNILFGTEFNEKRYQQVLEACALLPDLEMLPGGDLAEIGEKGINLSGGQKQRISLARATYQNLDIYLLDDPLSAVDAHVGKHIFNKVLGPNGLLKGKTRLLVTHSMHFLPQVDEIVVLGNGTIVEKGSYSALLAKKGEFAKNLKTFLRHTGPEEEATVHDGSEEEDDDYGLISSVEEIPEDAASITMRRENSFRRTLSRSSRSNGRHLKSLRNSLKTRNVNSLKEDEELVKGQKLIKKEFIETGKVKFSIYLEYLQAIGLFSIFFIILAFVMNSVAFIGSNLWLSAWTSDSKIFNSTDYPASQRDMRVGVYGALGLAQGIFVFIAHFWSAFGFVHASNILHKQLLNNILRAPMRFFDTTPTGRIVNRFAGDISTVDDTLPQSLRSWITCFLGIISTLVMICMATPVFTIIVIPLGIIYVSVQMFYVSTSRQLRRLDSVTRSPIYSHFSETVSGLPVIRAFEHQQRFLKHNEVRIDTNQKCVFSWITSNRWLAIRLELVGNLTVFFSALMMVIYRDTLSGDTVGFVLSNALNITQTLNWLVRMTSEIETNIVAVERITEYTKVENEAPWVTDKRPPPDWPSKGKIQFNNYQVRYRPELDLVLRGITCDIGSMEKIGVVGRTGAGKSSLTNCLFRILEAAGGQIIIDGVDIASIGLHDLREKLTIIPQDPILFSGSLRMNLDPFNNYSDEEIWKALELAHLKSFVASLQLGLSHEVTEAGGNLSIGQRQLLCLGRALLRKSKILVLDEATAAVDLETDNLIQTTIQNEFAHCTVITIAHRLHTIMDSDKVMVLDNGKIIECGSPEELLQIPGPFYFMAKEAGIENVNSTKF
Sequence of ATP-binding cassette sub-family C member 3 (O15438 whole entry): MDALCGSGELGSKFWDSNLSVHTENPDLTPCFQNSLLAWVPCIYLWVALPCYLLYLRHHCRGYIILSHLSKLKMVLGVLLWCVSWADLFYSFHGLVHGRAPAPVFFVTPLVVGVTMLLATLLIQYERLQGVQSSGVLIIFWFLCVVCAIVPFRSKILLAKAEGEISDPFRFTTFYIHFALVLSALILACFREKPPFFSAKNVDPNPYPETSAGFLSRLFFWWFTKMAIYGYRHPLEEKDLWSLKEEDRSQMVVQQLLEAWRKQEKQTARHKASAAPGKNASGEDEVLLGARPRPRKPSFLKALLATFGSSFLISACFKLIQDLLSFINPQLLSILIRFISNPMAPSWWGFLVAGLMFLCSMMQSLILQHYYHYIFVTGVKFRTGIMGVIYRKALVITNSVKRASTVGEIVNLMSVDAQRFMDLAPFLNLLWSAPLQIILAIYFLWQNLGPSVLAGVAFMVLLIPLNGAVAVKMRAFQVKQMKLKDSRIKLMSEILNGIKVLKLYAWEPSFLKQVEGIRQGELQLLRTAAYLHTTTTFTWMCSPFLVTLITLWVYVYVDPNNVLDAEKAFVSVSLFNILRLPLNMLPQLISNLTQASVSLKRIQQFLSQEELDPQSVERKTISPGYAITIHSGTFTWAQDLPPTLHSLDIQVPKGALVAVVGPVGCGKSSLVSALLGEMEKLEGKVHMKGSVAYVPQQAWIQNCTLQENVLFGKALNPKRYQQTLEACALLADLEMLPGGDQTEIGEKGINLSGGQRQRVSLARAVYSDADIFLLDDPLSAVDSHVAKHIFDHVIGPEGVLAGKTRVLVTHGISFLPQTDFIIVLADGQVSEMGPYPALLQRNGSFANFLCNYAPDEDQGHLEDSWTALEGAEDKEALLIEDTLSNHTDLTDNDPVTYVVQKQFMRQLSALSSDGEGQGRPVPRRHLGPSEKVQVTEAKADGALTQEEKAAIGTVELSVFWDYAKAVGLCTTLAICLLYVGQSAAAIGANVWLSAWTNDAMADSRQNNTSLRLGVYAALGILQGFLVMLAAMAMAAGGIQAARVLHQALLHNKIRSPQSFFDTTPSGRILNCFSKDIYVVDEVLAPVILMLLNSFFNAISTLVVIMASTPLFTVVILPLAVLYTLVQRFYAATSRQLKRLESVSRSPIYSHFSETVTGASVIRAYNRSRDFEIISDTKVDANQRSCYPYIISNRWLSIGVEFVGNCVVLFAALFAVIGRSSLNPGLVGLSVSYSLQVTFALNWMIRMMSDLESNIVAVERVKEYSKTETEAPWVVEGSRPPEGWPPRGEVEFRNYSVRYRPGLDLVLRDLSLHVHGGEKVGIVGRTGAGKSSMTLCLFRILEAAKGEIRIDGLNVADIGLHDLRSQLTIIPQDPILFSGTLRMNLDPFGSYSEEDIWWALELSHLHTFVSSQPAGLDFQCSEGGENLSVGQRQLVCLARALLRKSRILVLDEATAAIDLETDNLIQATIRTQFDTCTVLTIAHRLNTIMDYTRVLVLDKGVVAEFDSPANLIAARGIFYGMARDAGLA

IC50 [5] | Structure (SMILES) | IC50 [1] | IC50 (Bile salt export pump) | IC50 [6] | also measured
85 µM | Cc1ccc(C(=O)c2cc(O)c(O)c([N+](=O)[O-])c2)cc1 [TOLCAPONE] | – | 36.6 µM | 16.7 µM | Ratio [10]: 0.263; AUC at 8 h [11]: 179 µM·h; Ratio [12]: 1.338; concentration at 8 h [13]: 22.3 µM; Ratio [14]: 0.611
> 133 µM | Cc1onc(-c2c(Cl)cccc2Cl)c1C(=O)N[C@@H]1C(=O)N2[C@@H]1SC(C)(C)[C@@H]2C(=O)O [DICLOXACILLIN] | > 133 µM | 56.4 µM | > 133 µM | Ratio [15]: 0.498; concentration at 6 h [16]: 28.1 µM; AUC at 6 h [17]: 168 µM·h
9.3 µM | CN(C)C(=O)CCSC(SCCC(=O)O)c1cccc(/C=C/c2ccc3ccc(Cl)cc3n2)c1 (stereo not drawn) [MK-571] | > 133 µM | – | – | AUC at 24 h [18]: 447 µM·h; concentration at 24 h [19]: 18.6 µM

Structure (SMILES) | IC50 [5] | IC50 [1] | IC50 (Bile salt export pump) | IC50 [6] | also measured
CC(=O)O.C[C@@H](O)[C@@H]1NC(=O)[C@H](CCCCN)NC(=O)[C@@H](Cc2c[nH]c3ccccc23)NC(=O)[C@H](Cc2ccccc2)NC(=O)[C@@H](NC(=O)[C@H](N)Cc2ccccc2)CSSC[C@@H](C(=O)N[C@H](CO)[C@@H](C)O)NC1=O [OCTREOTIDE ACETATE] | > 133 µM | > 133 µM | 9.34 µM | > 133 µM | concentration at 8 h [2]: 5.28 µM; Ratio [3]: 0.565; AUC at 8 h [4]: 42.2 µM·h
CC[C@@H]([C@H](C)O)n1ncn(-c2ccc(N3CCN(c4ccc(OC[C@@H]5CO[C@@](Cn6cncn6)(c6ccc(F)cc6F)C5)cc4)CC3)cc2)c1=O [POSACONAZOLE] | > 133 µM | > 133 µM | 8.1 µM | > 133 µM | concentration at 8 h [7]: 4.41 µM; AUC at 8 h [8]: 35.2 µM·h; Ratio [9]: 0.544
